For 20 compounds, EC50 results are on record in patent US9822069B2, “Urea derivative or pharmacologically acceptable salt thereof” (KYORIN PHARMACEUTICAL CO. LTD., priority 2013, dated 2017).

In general, EC50 refers to the concentration at which the effect is half-maximal.

In the test the target is T1, human FPRL1 (Homo sapiens, UniProt P25090).
T1 construct: expressed in transfected cells; host or cells: HEK293 (JCRB9068, NIBIO), transient transfection with pCMV-script vectors using Lipofectamine 2000
T1 sequence (P25090 1-351): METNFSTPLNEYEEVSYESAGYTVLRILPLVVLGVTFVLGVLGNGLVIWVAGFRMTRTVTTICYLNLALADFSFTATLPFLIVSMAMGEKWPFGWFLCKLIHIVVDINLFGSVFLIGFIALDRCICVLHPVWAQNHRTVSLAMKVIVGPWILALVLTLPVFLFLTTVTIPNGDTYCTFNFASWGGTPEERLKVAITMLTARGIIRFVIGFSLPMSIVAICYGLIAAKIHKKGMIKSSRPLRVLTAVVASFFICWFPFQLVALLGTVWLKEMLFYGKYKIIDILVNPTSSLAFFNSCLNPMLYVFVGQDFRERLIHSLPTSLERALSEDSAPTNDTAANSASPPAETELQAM
Kind of test: Measurement test of agonist activity on human FPRL1 (test of calcium mobilization in cell, HEK293 with human FPRL1 and Gα15 expression vectors). It counts as cell-based. The following applies: calcium mobilization in HEK293 cells with human FPRL1 and Gα15 expression vectors. The text has this: Measurement Test of Agonist Activity on Human FPRL1
(1-1) Construction of Human FPRL1 Expression Vector
Human FPRL (SEQ ID NO: 3) was amplified in a PCR reaction from cDNA derived from a monocytic leukemia cell line THP-1 (TIB-202, ATCC) as a template using a forward primer shown in SEQ ID NO: 1, a reverse primer shown in SEQ ID NO: 2, and KOD-plus-ver. 2 (KOD-211, TOYOBO CO., LTD.). The amplified PCR product and pCMV-script vector (212220, STRATAGENE) were digested with Hind III (1060A, Takara Bio Inc.) and XhoI (1094A, Takara Bio Inc.), and the resultant digest was ligated with Ligation high ver. 2 (LGK-201, TOYOBO CO., LTD.). The ligation product was transformed into DH5α (DNA-901, TOYOBO CO., LTD.), cultured on a 100 μg/mL kanamycin-containing LB medium, and purified with HiSpeed Plasmid Maxi Kit (12662, QIAGEN).
(1-2) Construction of Human Gα15 Expression Vector
Human Gα15 (SEQ ID NO: 6) was amplified in a PCR reaction from cDNA derived from a myeloid leukemia cell line HL-60 (CCL-240, ATCC) as a template using a forward primer shown in SEQ ID NO: 4, a reverse primer shown in SEQ ID NO: 5, and KOD-plus-ver. 2. The amplified PCR product and pCMV-script vector were digested with Hind III and XhoI, and the resultant digest was ligated with Ligation high ver. 2. The ligation product was transformed into DH5α, cultured on a 100 μg/mL kanamycin-containing LB medium, and purified with HiSpeed Plasmid Maxi Kit.
(2-1) Method for Culturing and Subculturing HEK293
HEK293 (JCRB9068, NIBIO) was cultured in an incubator at 5% CO2 and 37° C. using DMEM (11885-092, GIBCO) containing 10% FBS and 1× Penicillin-Streptomycin (15140-122, GIBCO). Subculture was carried out as followings: The cells that reached 80 to 90% confluency were washed with PBS(−), separated using 0.25% Trypsin-EDTA (25200-072, GIBCO), centrifuged, re-suspended in a fresh medium, and then seeded in Collagen Type 1 Coated dish (4020-010, IWAKI) at a split ratio of 1:8 (cultured for 3 days).
(2-2) Introduction of Human FPRL1 and Gα15 Expression Vectors
HEK293 that reached 80 to 90% confluency was washed with PBS(−), separated using 0.25% Trypsin-EDTA, centrifuged, and re-suspended in a fresh medium excluding 1× Penicillin-Streptomycin. The cells were inoculated in a Collagen Type 1 coated 6-well plate (4810-010, IWAKI) to 5×10^5 cells/2.5 mL/well and cultured overnight. On the next day, human FPRL1 and Gα15 expression vectors were introduced using Lipofectamine 2000 transfection reagent (11668-019, Life technologies). First, the human FPRL1 and Gα15 expression vectors were diluted with Opti-MEM I Reduced Serum Medium (31985-070, GIBCO) to 2 μg/250 μL/well and Lipofectamine 2000 transfection reagent was diluted with Opti-MEM I Reduced Serum Medium to be 4 μL/250 μL/well. The vectors and reagent were softly diffused, and incubated at room temperature for 5 minutes. The vector solution was mixed with Lipofectamine 2000 transfection reagent in equal amounts. In order to form a composite of the vectors and Lipofectamine 2000 transfection reagent, the mixture was incubated at room temperature for 20 minutes, and added at 500 μL/well to the medium of inoculated cells. The treated cells were cultured for 24 hours, inoculated in Poly-D-Lysine coated 96-well plate (356640, BD Biosciences) at a cell density of 7×10^4 cells/100 μL/well, and cultured for another 24 hours. The resultant cells were used in a measurement test of calcium mobilization in the cells.
(3) Evaluation of Agonist Activity on Human FPRL1 (Test of Calcium Mobilization in Cell)
An appropriate amount of each test compound was first weighed, and dissolved to 10^−2 M by addition of dimethyl sulfoxide (DMSO). […]
On the technique in general: A change in cytosolic calcium serves as a functional read-out for many receptors and channels.
Take `COc1cc(F)c([C@@H]2CN(CCO)C(=O)[C@H]2NC(=O)Nc2cc3ccccc3s2)c(F)c1` (relative stereo) [Example 24-10, (−)-1-(benzo[b]thiophen-2-yl)-3-[(3S*,4R*)-4-(2,6-difluoro-4-methoxyphenyl)-1-(2-hydroxyethyl)-2-oxopyrrolidin-3-yl]urea]: the EC50 was determined as 1 nM.

Regarding `COc1ccc([C@@H]2CN(C(C)C(=O)O)C(=O)[C@H]2NC(=O)Nc2ccc(F)cc2)cc1` (single isomer, unassigned; isomer a) [Example 18-1, (−)-2-{(3S*,4R*)-3-[3-(4-Fluorophenyl)ureido]-4-(4-methoxyphenyl)-2-oxopyrrolidin-1-yl}propionic acid (isomer A)], the EC50 was found to be 2.36 nM.

For `COc1cc(F)c([C@@H]2CNC(=O)[C@H]2NC(=O)Nc2ccc(C#N)c(O)c2)c(F)c1` (relative stereo) [Example 1-73, 1-(4-cyano-3-hydroxyphenyl)-3-[(3S*,4R*)-4-(2,6-difluoro-4-methoxyphenyl)-2-oxopyrrolidin-3-yl]urea], the EC50 is 1.2 nM.

As to `COc1cc(F)c([C@@H]2CN(Cc3ccccc3)C(=O)[C@H]2NC(=O)Nc2ccc(F)cc2)c(F)c1` (relative stereo) [Example 24-12, (−)-1-[(3S*,4R*)-1-benzyl-4-(2,6-difluoro-4-methoxyphenyl)-2-oxopyrrolidin-3-yl]-3-(4-fluorophenyl)urea], the concentration giving a half-maximal response (EC50) was determined as 2.2 nM.

For `COc1ccc([C@@H]2CNC(=O)[C@H]2NC(=O)Nc2ccc(F)cc2)cc1F` (single isomer, unassigned) [EXAMPLE 1-8, (−)-1-[(3S*,4R*)-4-(3-fluoro-4-methoxyphenyl)-2-oxopyrrolidin-3-yl]-3-(4-fluorophenyl)urea], the EC50 came out at 0.9 nM.

Consider `COc1cc(F)c([C@@H]2CN(C)C(=O)[C@H]2NC(=O)Nc2ccc(C#N)cc2)c(F)c1` (relative stereo) [Example 24-3], for which the concentration giving a half-maximal response (EC50) was found to be 1.1 nM.

As for `O=C(Nc1ccc(Cl)cc1)N[C@H]1C(=O)NC[C@@H]1c1ccccc1` (relative stereo) [Example 1-43, (+)-1-(4-chlorophenyl)-3-[(3R*,4S*)-2-oxo-4-phenylpyrrolidin-3-yl]urea], the concentration for a half-maximal effect (EC50) came to 5.13 nM.

On to `COc1cc(F)c([C@@H]2CN(CS(N)(=O)=O)C(=O)[C@H]2NC(=O)Nc2ccc(F)cc2)c(F)c1` (relative stereo) [Example 24-15, (−)-{(3S*,4R*)-4-(2,6-difluoro-4-methoxyphenyl)-3-[3-(4-fluorophenyl)ureido]-2-oxopyrrolidin-1-yl}methanesulfonamide], for which the EC50 amounted to 0.03 nM.

For `CNC(=O)CN1C[C@@H](c2c(F)cc(OC)cc2F)[C@H](NC(=O)Nc2ccc(F)cc2)C1=O` (relative stereo) [Example 17-2, (−)-2-{(3S*,4R*)-4-(2,6-difluoro-4-methoxyphenyl)-3-[3-(4-fluorophenyl)ureido]-2-oxopyrrolidin-1-yl}-N-methylacetamide], the concentration for a half-maximal effect (EC50) is 0.07 nM.

In the case of `COc1cnc([C@@H]2CNC(=O)[C@H]2NC(=O)Nc2ccc(Cl)s2)c(F)c1` (relative stereo) [Example 8-2, (−)-1-(5-chlorothiophen-2-yl)-3-[(3S*,4R*)-4-(3-fluoro-5-methoxypyridin-2-yl)-2-oxopyrrolidin-3-yl]urea], the EC50 worked out at 1.6 nM.

Regarding `C/N=C1\NC[C@@H](c2c(F)cc(OC)cc2F)[C@@H]1NC(=O)Nc1ccc(F)cc1` (relative stereo) [EXAMPLE 32-6, 1-[(3S*,4R*,Z)-4-(2,6-difluoro-4-methoxyphenyl)-2-(methylimino)pyrrolidin-3-yl]-3-(4-fluorophenyl)urea], the EC50 was 0.37 nM.

As to `N#CCN1C[C@@H](c2cc3c(cc2F)OCC3)[C@H](NC(=O)Nc2ccc(F)cc2)C1=O` (single isomer, unassigned) [EXAMPLE 24-23, (−)-1-[(3S*,4R*)-1-(cyanomethyl)-4-(6-fluoro-2,3-dihydrobenzofuran-5-yl)-2-oxopyrrolidin-3-yl]-3-(4-fluorophenyl)urea], the 50% effective concentration (EC50) turned out to be 0.8 nM.

For `CNC(=O)C(C)N1C[C@@H](c2ccc(OC)cc2)[C@H](NC(=O)Nc2ccc(F)cc2)C1=O` (single isomer, unassigned; isomer a) [Example 19-1, (−)-2-{(3S*,4R*)-3-[3-(4-Fluorophenyl)ureido]-4-(4-methoxyphenyl)-2-oxopyrrolidin-1-yl}-N-methylpropionamide (isomer A)], the half-maximal effective concentration (EC50) is 0.21 nM.

As to `NC(=O)c1cc(F)c([C@@H]2CNC(=O)[C@H]2NC(=O)Nc2ccc(F)cc2)c(F)c1` (single isomer, unassigned) [EXAMPLE 31-1, (−)-3,5-Difluoro-4-{(3R*,4S*)-4-[3-(4-fluorophenyl)ureido]-5-oxopyrrolidin-3-yl}benzamide], the EC50 was found to be 1.94 nM.

Regarding `COc1cc(F)c([C@@H]2CNC(=O)[C@H]2NC(=O)Nc2cccc(O)c2)c(F)c1` (relative stereo) [Example 1-57, 1-[(3S*,4R*)-4-(2,6-difluoro-4-methoxyphenyl)-2-oxopyrrolidine-3-yl]-3-(3-hydroxyphenyl)urea], the concentration giving a half-maximal response (EC50) stood at 0.16 nM.

In the case of `COc1cc(F)c([C@@H]2CNC(=O)[C@H]2NC(=O)Nc2ccc(F)c(F)c2)c(F)c1` (relative stereo) [Example 7-9, (−)-1-[(3S*,4R*)-4-(2,6-difluoro-4-methoxyphenyl)-2-oxopyrrolidin-3-yl]-3-(3,4-difluorophenyl)urea], the EC50 came to 0.16 nM.

Regarding `COc1ccc(C2CN(CCO)C(=O)C2NC(=O)Nc2ccc(F)cc2)cc1` (stereo not drawn) [Example 12-15, (+)-1-(4-fluorophenyl)-3-[1-(2-hydroxyethyl)-4-(4-methoxyphenyl)-2-oxopyrrolidin-3-yl]urea], the EC50 is 0.43 nM.

On to `COc1cc(F)c([C@@H]2CNC(=O)[C@H]2NC(=O)Nc2ccc(Cl)s2)c(F)c1` (relative stereo) [Example 8-1, (−)-1-(5-Chlorothiophen-2-yl)-3-[(3S*,4R*)-4-(2,6-difluoro-4-methoxyphenyl)-2-oxopyrrolidin-3-yl]urea], for which the concentration for a half-maximal effect (EC50) stood at 0.29 nM.

As for `CCc1ccc(NC(=O)N[C@@H]2C(=O)NC[C@H]2c2c(F)cc(OC)cc2F)cc1` (relative stereo) [Example 7-10, (−)-1-[(3S*,4R*)-4-(2,6-difluoro-4-methoxyphenyl)-2-oxopyrrolidin-3-yl]-3-(4-ethylphenyl)urea], the 50% effective concentration (EC50) worked out at 2.31 nM.

As to `COc1cc(F)c([C@@H]2CNC(=O)[C@H]2NC(=O)Nc2ncc(Cl)s2)c(F)c1` (relative stereo) [Example 1-26, (−)-1-(5-chlorothiazol-2-yl)-3-[(3S*,4R*)-4-(2,6-difluoro-4-methoxyphenyl)-2-oxopyrrolidin-3-yl]urea], the EC50 came out at 1.91 nM.
